PMC12257510, “Structure-Guided Design of a KMT9 Inhibitor Prodrug with Cellular Activity” (Journal of Medicinal Chemistry, 2025)
Read-outs that look alike come from different tables or passages of the source.

What was measured:
KMT9 [1] = biological target: T1, KMT9 (Homo sapiens, UniProt Q9Y5N5); assay: Microscale thermophoresis (MST) binding assay; details: for Kd: MST, binding to KMT9, read-out: Kd
T1 sequence (Q9Y5N5 1-214): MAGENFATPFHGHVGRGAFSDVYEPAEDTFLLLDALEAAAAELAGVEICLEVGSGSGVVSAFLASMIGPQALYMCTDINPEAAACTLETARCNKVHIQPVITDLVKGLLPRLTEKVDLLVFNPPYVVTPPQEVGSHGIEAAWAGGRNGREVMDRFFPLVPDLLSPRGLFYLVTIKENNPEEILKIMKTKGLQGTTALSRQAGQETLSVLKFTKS
T1 sequence (Q9UI30 1-125 partner): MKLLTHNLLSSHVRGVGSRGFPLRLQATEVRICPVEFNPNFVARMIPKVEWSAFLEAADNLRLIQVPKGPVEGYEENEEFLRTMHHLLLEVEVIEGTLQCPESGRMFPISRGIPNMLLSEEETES
Description: To determine the binding affinity of the compound and KMT9, microscale thermophoresis (MST) analysis was performed with a NanoTemper Monolith NT.115 instrument (NanoTemper Technologies GmbH). KMT9 was labeled with a RED-Tris-NTA labeling kit (NanoTemper Technologies GmbH) based on the manufacturer’s instructions. Buffer including 25 mM HEPES (pH 7.5), 100 mM NaCl, 1 mM DTT and 0.05% Tween was used for the reaction buffer. Varying concentrations of compounds were titrated against His-tag labeled KMT9 proteins (20 nM). Samples were loaded into standard Capillaries (NanoTemper Technologies GmbH) and MST measurements were performed using 40% MST power and 100% LED power. For each set of binding experiments, MST measurement was carried out with Binding Affinity module in MO. Control program under Nano-RED excitation. Data sets were processed with the MO.Affinity Analysis software (NanoTemper Technologies GmbH).

KMT9 [2] = biological target: T1, KMT9; parameters: method as in previous study; details: compound 2d taken as a reference from the previous study; ref previous study; cited from earlier work
KMT9 [3] = biological target: T1, KMT9; parameters: method as in previous study; details: compound 2d taken as a reference from the previous study; ref previous study; cited from earlier work; remark: listed apart in the source
KMT9 [4] = biological target: T1, KMT9; parameters: method as in previous study; details: compound 2d taken as a reference from the previous study; ref previous study; cited from earlier work; remark: listed apart in the source
[5] = system: panel of 27 SET domain-containing and 14 Rossmann-fold methyltransferases; assay: Selectivity assay, radiometric methyltransferase panel; type: biochemical; details: IC50 panel, 3H-labeled SAM
Description: Selectivity profile of compound 6 was evaluated by testing the IC50 in a panel of methyltransferases. The IC50 of a panel of SET-domain containing and Rossmann-fold methyltransferases was assessed in a radiometric assay measuring substrate methylation using ^3H-labeled SAM by RBC Corp by compound 6. Data was process and plotted using KNIME Analytic Platform from KNIME AG.

KMT9 [6] = biological target: T1, KMT9; assay: Thermal shift assay (SyproOrange); type: binding; details: thermal shift, 2 μM KMT9, 500 μM compound; read-out: ΔTm
Description: The assay was carried out in 96-well Hard-Shell PCR plates (Bio-Rad Laboratories Inc.). […] Final assay concentrations were set to 500 μM of compound 8, 2 μM KMT9 and 5× SO. One μL of 20× compound, 4 μL of assay buffer, 10 μL of 2× KMT9 and 5 μL of 4× SO were pipetted. For the no-compound control, 20× inhibitor stock was replaced by DMSO. The final volume was 20 μL. The plate was spun down at 700 rpm for 1 min using a Hettich UNIVERSAL 320 centrifuge and incubated at 25 °C, shaking at 600 rpm. After incubation, the plate was spun down for 1 min at 700 rpm and measurement was conducted using a CFX96 Touch Real-Time PCR Detection System (Bio-Rad Laboratories Inc.). The plate was equilibrated at 20 °C for 4 min and then heated stepwise at a rate of 1 °C per 15 s until 95 °C. After every step, fluorescence was measured in FRET mode. Calculation of melting points was conducted by a Boltzman sigmoidal model using GraphPad Prism 7.0.

endogenous KMT9a [7] = biological target: T2, endogenous KMT9a (Homo sapiens, UniProt Q9Y5N5); assay: CETSA in SW480 cell lysate, KMT9; type: binding; details: 2 h, vs DMSO
T2 construct: increased thermal stability of endogenous KMT9 in SW480 cell lysates; endogenous in cells; host or cells: SW480
T2 sequence (Q9Y5N5 1-214): T1 sequence (Q9Y5N5 1-214)
T2 sequence (Q9UI30 1-125 partner): T1 sequence (Q9UI30 1-125 partner)
Description: (§1) For whole cell CETSA, the cells were incubated with 10/15 μM of compound 7b/8/8-N for 18 h. Then, cells were washed with cell culture medium, detached from the surface using trypsin, washed with PBS and the number of cells was determined. Cell concentration was adjusted to 3.6 × 10^7 cells/mL using in PBS with Complete (w/o EDTA, Roche) protease inhibitor. Then, cells were frozen in liquid nitrogen and thawed at 25 °C three times, before being divided in 16 aliquots. Each aliquot was heated to a defined temperature between 40 and 70 °C in a PCR cycler (16 well gradient, 55 °C ± 15). After 3 min incubation, aliquots were snap frozen in liquid nitrogen and thawed at 25 °C. Cell lysates were then centrifuged at 20,000 × g , 4 °C for 20 min. Supernatant were mixed with 5× loading buffer, heated to 70 °C for 5 min and analyzed by Western blotting essentially as previously described. For the CETSA performed with cell lysates, cells were directly harvested and lysed as described above. The lysates were then split and incubated either with DMSO or 10 μM compound 7b for 2 h. Then, lysates were aliquoted again into 16 samples each and treated as described for the whole cell CETSA.

endogenous KMT9a [8] = biological target: T2, endogenous KMT9a; assay: CETSA in intact SW480 cells, KMT9; type: cell-based; details: 18 h, vs DMSO
Description: as §1

KMT5A = biological target: T3, KMT5A (Homo sapiens, UniProt Q9NQR1); assay: CETSA in SW480 cell lysate, KMT5A (negative control); type: binding; parameters: endogenous in cells; host or cells: SW480; details: negative control protein
T3 sequence (Q9NQR1 1-393): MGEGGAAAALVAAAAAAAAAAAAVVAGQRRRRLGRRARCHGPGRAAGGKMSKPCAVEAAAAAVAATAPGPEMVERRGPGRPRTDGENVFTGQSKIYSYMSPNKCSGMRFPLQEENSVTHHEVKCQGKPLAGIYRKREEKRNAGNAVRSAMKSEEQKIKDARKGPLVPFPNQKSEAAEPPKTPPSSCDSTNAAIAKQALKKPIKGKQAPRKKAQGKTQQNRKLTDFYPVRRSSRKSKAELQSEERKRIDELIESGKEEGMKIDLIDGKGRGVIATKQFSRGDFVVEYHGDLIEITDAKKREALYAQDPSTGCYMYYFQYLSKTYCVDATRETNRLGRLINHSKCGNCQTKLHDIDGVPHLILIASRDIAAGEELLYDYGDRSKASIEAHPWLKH
Description: as §1, with “The lysates were then split and incubated either with DMSO or 10 μM compound 7b for 2 h. Then, lysates were aliquoted again into 16 samples each and treated as described for the whole cell CETSA.” left out
(§2) Figure S4. […] Representative Western blots (A) and quantification (B) showing no obvious shifting melting temperatures (ΔT m) of endogenous KMT5A upon treatment with compound 7b compared to DMSO. […]
(§3) Representative Western blots (C) and quantification (D) showing no shifting melting temperatures (ΔT m) of endogenous KMT5A upon treatment with compound 8 compared to DMSO. […]

KMT9 [9] = biological target: T1, KMT9; assay: KMT9 methyltransferase inhibition assay (3H-SAM, ETF1 substrate)
Description: The assay was carried out in 0.5 mL Eppendorf tubes in duplicates. Assay buffer consisted of 50 mM BTP, 1 mM MgCl2, 1 mM DTT and 0,01% Triton-X100 at a pH of 8.5 (adjusted using 1 M HCl and 1 M NaOH). 20X inhibitor stock (in DMSO), 2× enzyme stock and 4× substrate mix (both in assay buffer) were prepared. The substrate mix consisted of Tritium-labeled S-adenosylmethionine (3H-SAM), S-adenosylmethionine (SAM) and eukaryotic peptide chain release factor subunit1 (, residues 140–275) (ETF1). Final assay concentrations were set to 25 nM KMT9, 0.3 μM 3H-SAM, 0.7 μM SAM and 5 μM ETF1. […] Five μL of 4× substrate mix was added to initiate the reaction. The final reaction volume was 20 μL. For the positive control, the compound was replaced by DMSO; for the negative control, the compound was replaced by DMSO and KMT9 was replaced by assay buffer. The reaction mix was incubated in an Eppendorf thermomixer comfort at 30 °C for 2 h, shaking at 300 rpm. The reaction was quenched using 5 μL 50% trichloroacetic acid (TCA) and incubated at 25 °C for 5 min. Twenty-two μL of the mixture was transferred into 96-well MultiScreenHTS FB filter plates (Merck KGaA, Darmstadt, Germany) and washed four times with 10% TCA and two times with 100% ethanol. The plate was dried overnight, the filters were transferred into individual 6 mL Pony Vials (PerkinElmer Inc., Waltham, MA, USA) and incubated in 3 mL of Ultima Gold scintillation cocktail (PerkinElmer Inc., Waltham, MA, USA) for 30 min. The scintillation signal was measured for 3× 1 min using TriCarb 2910 TR (PerkinElmer) scintillation counter in 3H CPM mode (LL: 0, UL: 18.6).
Inhibition was calculated using the following formula: Inhibition[%]=(1−xc−xpos/xpos−xneg)×100
With xc: signal of compound, xpos: mean signal of positive control, xneg: mean signal of negative control. Data fitting was carried out by GraphPad 7.0 using nonlinear fit ([Inhibitor] vs response – variable slope (four parameters)).

[10] = system: H4K12me1 levels in PC-3 M prostate tumor cells; assay: Western blot of cellular H4K12me1 levels; type: cell-based; details: PC-3 M cells, 10 μM, 3 days
Description: 7 Cellular activity of prodrug compound 8. (A) Levels of H4K12me1 in PC-3 M prostate tumor cells cultured in the presence of DMSO (−), 10 μM compound 8 or compound 8-N for 3 days were analyzed by Western blot using the indicated antibodies. Histone H4 was used as control. (B, C) Proliferation of Caco-2 cells treated with DMSO (Ctrl), compound 8, or compound 8-N were measured by Xcelligence. Data represent means ± s.d (n = 3). (D) Proliferation of HepG2 cells upon treatment of DMSO (Ctrl) and compound 8.
Experiments were performed as previously described. Histones used for Western blot analysis were extracted from cells as following: Cells were harvested, washed with PBS, resuspended in Triton Extraction Buffer (TEB; PBS, Triton ×100, 2 mM PMSF, 0.02% NaN3), stored 10 min on ice, centrifuged, and supernatant was discarded. After washing cells, a second time with TEB, pellets were resuspended in 0.2 N HCl and histones were acid-extracted overnight at 4 °C. Upon centrifugation for 10 min at 2000 rpm, supernatant was collected and protein concentration was determined. Three days before harvesting, cells were transfected with siRNA as indicated. The following antibodies were used: anti-KMT9α (#27630, lot 20062017, Schüle Lab), antihistone H4 (#ab10158, lot GR322677–1, Abcam), anti-H4K12me1 (#27429, lot 27062017, Schüle Lab).

Caco-2 cells = assay: Cell proliferation assay (X-Celligence), Caco-2; type: cell-based; details: Xcelligence, vs DMSO
Description: Cell proliferation was determined using the X-Celligence RTCA system (Roche). For real-time recording of SW480, Caco-2 cell proliferation, 5000 cells/well were seeded in 16 well E-plates (Roche). […] Cell indices were automatically recorded every 15 min. Relative velocities represent the change of the cell index over time. The sequences of the siRNAs (Stealth RNAi siRNAs; Life Technologies) used in the experiments have been previously described.

KMT9a = biological target: T4, KMT9a (Homo sapiens, UniProt Q9Y5N5); assay: CETSA in Caco-2 cells, KMT9; type: cell-based; parameters: of endogenous KMT9 upon treatment with; endogenous in cells; host or cells: Caco-2; details: 15 μM
T4 sequence (Q9Y5N5 1-214): T1 sequence (Q9Y5N5 1-214)
T4 sequence (Q9UI30 1-125 partner): T1 sequence (Q9UI30 1-125 partner)
Description: as §1, with “The lysates were then split and incubated either with DMSO or 10 μM compound 7b for 2 h. Then, lysates were aliquoted again into 16 samples each and treated as described for the whole cell CETSA.” left out
as §2, §3

## NCCCN(CC[C@H](N)C(=O)O)C[C@H]1O[C@@H](n2cnc3c(N)ncnc32)[C@H](O)[C@@H]1O [compound 2d, (S)-2-Amino-4-((((2R,3S,4R,5R)-5-(6-amino-9H-purin-9-yl)-3,4-dihydroxytetrahydrofuran-2-yl)methyl)(3-aminopropyl)amino)butanoic acid]
KMT9 [1]; Kd ratio vs compound 1
  Increase of binding compared to compound 1: about 1000 fold
KMT9 [2]
  Kd: 0.01 µM
KMT9 [3]
  IC50: 0.029 µM
KMT9 [4]
  ΔTm: ΔTm= 18.12 K

## CNc1ncnc2c1ccn2[C@@H]1C[C@H](CN(CCCNCCc2ccccc2)CC[C@H](N)C(=O)O)[C@@H](O)[C@H]1O [compound 6, (S)-2-Amino-4-((((1R,2R,3S,4R)-2,3-dihydroxy-4-(4-(methylamino)-7H-pyrrolo[2,3-d]pyrimidin-7-yl)cyclopentyl)methyl)(3-(phenethylamino)propyl)amino)butanoic acid]
KMT9 [1]; given in nM
  Kd: 30 nM
[5]
  Selectivity against SET-domain containing and Rossmann-fold MTs: selective for KMT9 against other MTs

## CNc1ncnc2c1ccn2[C@@H]1C[C@H](CN(CCCNCCc2ccc(Oc3ccc(Cl)cc3)c(F)c2)CC[C@H](N)C(=O)O)[C@@H](O)[C@H]1O [compound 7b, (s)-2-Amino-4-((3-((4-(4-chlorophenoxy)-3-fluorophenethyl)amino)propyl) (((1R,2R,3S,4R)-2,3-dihydroxy-4-(4-(methylamino)-7H-pyrrolo[2,3-d]pyrimidin-7-yl)cyclopentyl)methyl)amino)butanoic Acid]
KMT9 [1]; given in nM
  Kd: 12 nM
KMT9 [1]
  Kd: 10 nM
KMT9 [6]
  ΔTm at 500 µM: 19.7 °C
Endogenous KMT9a [7]
  ΔTm at 10 µM: 10.9 °C
Endogenous KMT9a [8]
  ΔTm at 10 µM: 1.8 °C
KMT5A
  ΔTm at 10 µM: 1.1 °C
KMT9 [9]
  IC50: 0.16 µM

## Ethyl (S)-2-amino-4-((3-(4-(4-chlorophenoxy)-3-fluorophenethoxy)propyl) (((1R,2R,3S,4R)-2,3-dihydroxy-4-(4-(methylamino)-7H-pyrrolo[2,3-d]pyrimidin-7-yl)cyclopentyl)methyl)amino)butanoate [compound 8-N]
Endogenous KMT9a [8]; 10 μM
  ΔTm of endogenous KMT9 (CETSA): −0.6 K
[10]
  Levels of H4K12me1: no effect was observed
Caco-2 cells
  Proliferation of Caco-2 cells: fails to do so
KMT9a
  ΔTm of KMT9 (CETSA): 0.1 K
